Data taken from US20240034726A9, “MAP KINASE KINASE (MKK7) INHIBITORS AND USES THEREOF” (Dana-Farber Cancer Institute, Inc., priority 2020, published 2024).

Columns and labels:
Assay in all cases: KINOMEscan
Type in all cases: binding
[1] = molecular target: T1, ACVR2B (Homo sapiens, UniProt Q13705)
T1 construct: purchased KINOMEscan (Ambit)
From the text: (§1) The activity of the compounds was confirmed using Compound S-(I-1) in the KINOMEscan screening platform.

[2] = molecular target: T2, ARK5 (Homo sapiens, UniProt O60285)
T2 construct: purchased KINOMEscan (Ambit)
From the text: as §1

[3] = molecular target: T3, BMPR2 (Homo sapiens, UniProt Q13873)
T3 construct: purchased KINOMEscan (Ambit)
From the text: as §1

[4] = molecular target: T4, BTK (Homo sapiens, UniProt Q06187)
T4 construct: purchased KINOMEscan (Ambit)
From the text: as §1

[5] = molecular target: T5, CDC2L5 (Homo sapiens, UniProt Q14004)
T5 construct: purchased KINOMEscan (Ambit)
From the text: as §1

[6] = molecular target: T6, CDK11 (Homo sapiens, UniProt Q9BWU1)
T6 construct: purchased KINOMEscan (Ambit)
T6 sequence (Q9BWU1 whole entry): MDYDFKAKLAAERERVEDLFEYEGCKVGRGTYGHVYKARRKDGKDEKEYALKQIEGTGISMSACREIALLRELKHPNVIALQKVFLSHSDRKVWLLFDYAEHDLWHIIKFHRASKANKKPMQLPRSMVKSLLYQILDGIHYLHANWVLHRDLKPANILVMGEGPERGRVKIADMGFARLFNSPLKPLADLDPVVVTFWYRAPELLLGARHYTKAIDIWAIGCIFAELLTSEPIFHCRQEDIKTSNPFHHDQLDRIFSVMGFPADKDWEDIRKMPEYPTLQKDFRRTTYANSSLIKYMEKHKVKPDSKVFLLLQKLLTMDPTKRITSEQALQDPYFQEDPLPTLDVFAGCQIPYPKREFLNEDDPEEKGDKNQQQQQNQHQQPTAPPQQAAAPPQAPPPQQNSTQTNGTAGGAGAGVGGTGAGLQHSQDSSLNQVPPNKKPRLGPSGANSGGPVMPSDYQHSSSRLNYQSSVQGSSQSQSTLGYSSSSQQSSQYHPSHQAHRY
From the text: as §1

[7] = molecular target: T7, CDK2 (Homo sapiens, UniProt P24941)
T7 construct: purchased KINOMEscan (Ambit)
From the text: as §1

[8] = molecular target: T8, CDK3 (Homo sapiens, UniProt Q00526)
T8 construct: purchased KINOMEscan (Ambit)
From the text: as §1

[9] = molecular target: T9, CDK8 (Homo sapiens, UniProt P49336)
T9 construct: purchased KINOMEscan (Ambit)
From the text: as §1

[10] = molecular target: T10, CHEK1 (Homo sapiens, UniProt O14757)
T10 construct: purchased KINOMEscan (Ambit) screening platform
From the text: as §1

[11] = molecular target: T11, CIT (Homo sapiens, UniProt O14578)
T11 construct: purchased KINOMEscan (Ambit) screening platform
From the text: as §1

[12] = molecular target: T12, CSK (Homo sapiens, UniProt P41240)
T12 construct: purchased KINOMEscan (Ambit) screening platform
From the text: as §1

[13] = molecular target: T13, CSNK1G1 (Homo sapiens, UniProt Q9HCP0)
T13 construct: purchased KINOMEscan (Ambit) screening platform
T13 sequence (Q9HCP0 whole entry): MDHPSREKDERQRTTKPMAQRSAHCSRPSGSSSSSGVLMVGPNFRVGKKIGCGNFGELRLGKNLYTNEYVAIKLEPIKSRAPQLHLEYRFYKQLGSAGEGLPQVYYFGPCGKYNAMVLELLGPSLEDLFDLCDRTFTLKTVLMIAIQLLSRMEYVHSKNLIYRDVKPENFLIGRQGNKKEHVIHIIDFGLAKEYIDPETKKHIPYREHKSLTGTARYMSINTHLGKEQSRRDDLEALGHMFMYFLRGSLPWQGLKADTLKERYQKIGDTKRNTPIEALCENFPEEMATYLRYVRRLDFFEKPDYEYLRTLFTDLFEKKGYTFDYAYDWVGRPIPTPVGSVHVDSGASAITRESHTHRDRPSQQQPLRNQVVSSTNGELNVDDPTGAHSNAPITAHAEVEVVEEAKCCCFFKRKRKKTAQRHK
From the text: as §1

[14] = molecular target: T14, CSNK1G2 (Homo sapiens, UniProt P78368)
T14 construct: purchased KINOMEscan (Ambit) screening platform
From the text: as §1

[15] = molecular target: T15, CSNK1G3 (Homo sapiens, UniProt Q9Y6M4)
T15 construct: purchased KINOMEscan (Ambit) screening platform
From the text: as §1

[16] = molecular target: T16, DCAMKL1 (Homo sapiens, UniProt O15075)
T16 construct: purchased KINOMEscan (Ambit)
From the text: as §1

[17] = molecular target: T17, DLK (Homo sapiens, UniProt Q12852)
T17 construct: purchased KINOMEscan (Ambit)
From the text: as §1

[18] = molecular target: T18, EGFR (Homo sapiens, UniProt P00533)
T18 construct: purchased KINOMEscan (Ambit)
From the text: as §1

[19] = molecular target: T19, EGFR(E746-A750del) (Homo sapiens, UniProt P00533, DEL746-750)
T19 construct: purchased KINOMEscan (Ambit)
From the text: as §1

[20] = molecular target: T20, EGFR(G719C) (Homo sapiens, UniProt P00533, G719C)
T20 construct: purchased KINOMEscan (Ambit)
From the text: as §1

[21] = molecular target: T21, EGFR(G719S) (Homo sapiens, UniProt P00533, G719S)
T21 construct: purchased KINOMEscan (Ambit)
From the text: as §1

[22] = molecular target: T22, EGFR(L747-E749del, A750P) (Homo sapiens, UniProt P00533, A750P/DEL747-749)
T22 construct: purchased KINOMEscan (Ambit)
T22 sequence (P00533 with tags, fused parts or gaps DEL747-749/A750P limits assumed): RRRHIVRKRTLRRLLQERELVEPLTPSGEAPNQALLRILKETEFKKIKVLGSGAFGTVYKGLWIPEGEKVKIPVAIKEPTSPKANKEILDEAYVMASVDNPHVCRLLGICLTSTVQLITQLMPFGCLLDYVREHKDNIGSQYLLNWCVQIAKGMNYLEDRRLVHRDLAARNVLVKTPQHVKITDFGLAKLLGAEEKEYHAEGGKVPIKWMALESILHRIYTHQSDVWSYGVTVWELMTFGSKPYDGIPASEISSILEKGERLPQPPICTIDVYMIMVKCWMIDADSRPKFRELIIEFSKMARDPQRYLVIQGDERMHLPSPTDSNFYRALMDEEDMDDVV
From the text: as §1

[23] = molecular target: T23, EGFR(L747-S752del, P753S) (Homo sapiens, UniProt P00533, DEL747-752/P753S)
T23 construct: purchased KINOMEscan (Ambit)
From the text: as §1

[24] = test system: EGFR(L747-T751del, Sins)
From the text: as §1

[25] = molecular target: T24, EGFR(L858R) (Homo sapiens, UniProt P00533, L858R)
T24 construct: purchased KINOMEscan (Ambit)
From the text: as §1

[26] = molecular target: T25, EGFR(L858R, T790M) (Homo sapiens, UniProt P00533, L858R/T790M)
T25 construct: purchased KINOMEscan (Ambit)
From the text: as §1

[27] = molecular target: T26, EGFR(L861Q) (Homo sapiens, UniProt P00533, L861Q)
T26 construct: purchased KINOMEscan (Ambit)
From the text: as §1

[28] = molecular target: T27, EGFR(S752-I759del) (Homo sapiens, UniProt P00533, DEL752-759)
T27 construct: purchased KINOMEscan (Ambit)
From the text: as §1

[29] = molecular target: T28, EGFR(T790M) (Homo sapiens, UniProt P00533, T790M)
T28 construct: purchased KINOMEscan (Ambit)
From the text: as §1

[30] = molecular target: T29, EPHA5 (Homo sapiens, UniProt P54756)
T29 construct: purchased KINOMEscan (Ambit)
From the text: as §1

[31] = molecular target: T30, EPHB2 (Homo sapiens, UniProt P29323)
T30 construct: purchased KINOMEscan (Ambit)
From the text: as §1

[32] = test system: FLT3(ITD)
From the text: as §1

[33] = molecular target: T31, IRAK4 (Homo sapiens, UniProt Q9NWZ3)
T31 construct: purchased KINOMEscan (Ambit) screening platform
From the text: as §1

[34] = molecular target: T32, ITK (Homo sapiens, UniProt Q08881)
T32 construct: purchased KINOMEscan (Ambit) screening platform
T32 sequence (Q08881 whole entry): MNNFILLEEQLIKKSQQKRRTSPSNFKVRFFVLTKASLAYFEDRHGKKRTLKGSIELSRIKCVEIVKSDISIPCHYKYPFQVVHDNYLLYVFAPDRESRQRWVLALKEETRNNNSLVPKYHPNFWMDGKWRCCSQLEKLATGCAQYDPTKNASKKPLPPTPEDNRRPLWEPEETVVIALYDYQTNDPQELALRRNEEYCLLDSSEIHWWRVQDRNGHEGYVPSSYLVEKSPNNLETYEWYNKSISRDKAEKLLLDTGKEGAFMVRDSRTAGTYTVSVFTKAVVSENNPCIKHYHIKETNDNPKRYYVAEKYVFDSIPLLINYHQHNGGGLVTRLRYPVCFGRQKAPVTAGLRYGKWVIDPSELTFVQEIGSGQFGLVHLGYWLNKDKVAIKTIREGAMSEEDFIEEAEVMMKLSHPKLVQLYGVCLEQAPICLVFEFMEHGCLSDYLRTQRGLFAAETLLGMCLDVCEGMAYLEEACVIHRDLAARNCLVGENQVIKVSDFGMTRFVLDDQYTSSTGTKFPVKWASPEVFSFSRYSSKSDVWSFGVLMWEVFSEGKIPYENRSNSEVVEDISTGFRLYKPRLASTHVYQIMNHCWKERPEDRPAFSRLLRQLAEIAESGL
From the text: as §1

[35] = molecular target: T33, JAK1(JH1domain-catalytic) (Homo sapiens, UniProt P23458)
T33 construct: JAK1(JH1domain); purchased KINOMEscan (Ambit) screening platform
From the text: as §1

[36] = molecular target: T34, JAK1(JH2domain-pseudokinase) (Homo sapiens, UniProt P23458)
T34 construct: JAK1(JH2domain-; purchased KINOMEscan (Ambit) screening platform
From the text: as §1

[37] = molecular target: T35, JAK2(JH1domain-catalytic) (Homo sapiens, UniProt O60674)
T35 construct: JAK2(JH1domain-; purchased KINOMEscan (Ambit) screening platform
From the text: as §1

[38] = molecular target: T36, JNK1 (Homo sapiens, UniProt P45983)
T36 construct: purchased KINOMEscan (Ambit) screening platform
T36 sequence (P45983 whole entry): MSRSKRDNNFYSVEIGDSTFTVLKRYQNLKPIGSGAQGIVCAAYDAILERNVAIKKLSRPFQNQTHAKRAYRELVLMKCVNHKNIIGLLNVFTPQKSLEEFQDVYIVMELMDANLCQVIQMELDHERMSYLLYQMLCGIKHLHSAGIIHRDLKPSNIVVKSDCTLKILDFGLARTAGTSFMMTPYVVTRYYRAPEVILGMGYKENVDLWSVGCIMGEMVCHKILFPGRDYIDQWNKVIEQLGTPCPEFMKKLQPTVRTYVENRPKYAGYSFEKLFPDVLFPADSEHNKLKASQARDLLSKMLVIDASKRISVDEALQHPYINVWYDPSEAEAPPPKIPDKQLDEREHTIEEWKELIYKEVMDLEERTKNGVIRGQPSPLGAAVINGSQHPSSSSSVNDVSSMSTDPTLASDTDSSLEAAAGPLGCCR
From the text: as §1

[39] = molecular target: T37, JNK2 (Homo sapiens, UniProt P45984)
T37 construct: purchased KINOMEscan (Ambit) screening platform
From the text: as §1

[40] = molecular target: T38, JNK3 (Homo sapiens, UniProt P53779)
T38 construct: purchased KINOMEscan (Ambit) screening platform
From the text: as §1

[41] = molecular target: T39, LATS2 (Homo sapiens, UniProt Q9NRM7)
T39 construct: purchased KINOMEscan (Ambit) screening platform
From the text: as §1

[42] = molecular target: T40, LOK (Homo sapiens, UniProt O94804)
T40 construct: purchased KINOMEscan (Ambit) screening platform
From the text: as §1

[43] = molecular target: T41, LZK (Homo sapiens, UniProt O43283)
T41 construct: purchased KINOMEscan screening platform (Ambit)
From the text: as §1

[44] = molecular target: T42, MAP4K3 (Homo sapiens, UniProt Q8IVH8)
T42 construct: purchased KINOMEscan screening platform (Ambit)
From the text: as §1

[45] = molecular target: T43, MARK4 (Homo sapiens, UniProt Q96L34)
T43 construct: purchased KINOMEscan screening platform (Ambit)
From the text: as §1

[46] = molecular target: T44, MET (Homo sapiens, UniProt P08581)
T44 construct: purchased KINOMEscan screening platform (Ambit)
From the text: as §1

[47] = molecular target: T45, MET(M1250T) (Homo sapiens, UniProt P08581, M1250T)
T45 construct: purchased KINOMEscan screening platform (Ambit)
From the text: as §1

[48] = molecular target: T46, MET(Y1235D) (Homo sapiens, UniProt P08581, Y1235D)
T46 construct: purchased KINOMEscan screening platform (Ambit)
From the text: as §1

[49] = molecular target: T47, MKK7 (Homo sapiens, UniProt O14733)
T47 construct: purchased KINOMEscan screening platform (Ambit)
From the text: as §1

[50] = molecular target: T48, MLK3 (Homo sapiens, UniProt Q16584)
T48 construct: purchased KINOMEscan screening platform (Ambit)
T48 sequence (Q16584 whole entry): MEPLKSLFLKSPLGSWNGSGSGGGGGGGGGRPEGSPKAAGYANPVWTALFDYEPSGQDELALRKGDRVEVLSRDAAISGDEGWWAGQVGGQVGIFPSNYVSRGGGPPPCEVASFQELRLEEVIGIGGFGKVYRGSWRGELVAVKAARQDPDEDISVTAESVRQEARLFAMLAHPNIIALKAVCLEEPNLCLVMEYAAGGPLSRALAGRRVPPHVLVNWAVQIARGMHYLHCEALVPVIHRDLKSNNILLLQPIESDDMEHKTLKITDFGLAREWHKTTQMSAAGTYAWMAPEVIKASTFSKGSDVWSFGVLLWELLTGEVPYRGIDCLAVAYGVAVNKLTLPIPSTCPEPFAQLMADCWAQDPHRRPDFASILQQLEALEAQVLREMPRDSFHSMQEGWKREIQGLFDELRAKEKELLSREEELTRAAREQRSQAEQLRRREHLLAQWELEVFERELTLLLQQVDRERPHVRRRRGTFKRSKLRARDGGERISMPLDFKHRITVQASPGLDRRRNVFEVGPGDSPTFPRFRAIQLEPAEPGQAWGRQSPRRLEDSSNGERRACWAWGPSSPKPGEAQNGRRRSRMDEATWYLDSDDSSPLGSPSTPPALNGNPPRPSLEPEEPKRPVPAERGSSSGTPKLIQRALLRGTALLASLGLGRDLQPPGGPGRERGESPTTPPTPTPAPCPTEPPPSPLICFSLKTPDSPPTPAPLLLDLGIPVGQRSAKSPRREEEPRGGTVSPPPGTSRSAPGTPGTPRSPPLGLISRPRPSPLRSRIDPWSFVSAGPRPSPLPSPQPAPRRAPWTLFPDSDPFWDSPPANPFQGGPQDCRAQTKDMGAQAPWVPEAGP
From the text: as §1

[51] = molecular target: T49, MST1 (Homo sapiens, UniProt Q13043)
T49 construct: purchased KINOMEscan screening platform (Ambit)
From the text: as §1

[52] = molecular target: T50, MST3 (Homo sapiens, UniProt Q9Y6E0)
T50 construct: purchased KINOMEscan screening platform (Ambit)
From the text: as §1

[53] = molecular target: T51, PFTK1 (Homo sapiens, UniProt O94921)
T51 construct: purchased KINOMEscan screening platform (Ambit)
From the text: as §1

[54] = molecular target: T52, PIP5K1C (Homo sapiens, UniProt O60331)
T52 construct: purchased KINOMEscan (Ambit) screening platform
From the text: as §1

[55] = molecular target: T53, PKMYT1 (Homo sapiens, UniProt Q99640)
T53 construct: purchased KINOMEscan (Ambit) screening platform
From the text: as §1

[56] = molecular target: T54, PLK2 (Homo sapiens, UniProt Q9NYY3)
T54 construct: purchased KINOMEscan (Ambit) screening platform
From the text: as §1

[57] = molecular target: T55, PRKR (Homo sapiens, UniProt P19525)
T55 construct: KINOMEscan (Ambit)
From the text: as §1

[58] = molecular target: T56, QSK (Homo sapiens, UniProt Q9Y2K2)
T56 construct: KINOMEscan (Ambit)
From the text: as §1

[59] = molecular target: T57, RSK4(Kin.Dom.1-N-terminal) (Homo sapiens, UniProt Q9UK32)
T57 construct: Kin.Dom.1; purchased KINOMEscan (Ambit)
From the text: as §1

[60] = molecular target: T58, RSK4(Kin.Dom.2-C-terminal) (Homo sapiens, UniProt Q9UK32)
T58 construct: Kin.Dom.2; purchased KINOMEscan (Ambit)
T58 sequence (Q9UK32 426-683 limits assumed): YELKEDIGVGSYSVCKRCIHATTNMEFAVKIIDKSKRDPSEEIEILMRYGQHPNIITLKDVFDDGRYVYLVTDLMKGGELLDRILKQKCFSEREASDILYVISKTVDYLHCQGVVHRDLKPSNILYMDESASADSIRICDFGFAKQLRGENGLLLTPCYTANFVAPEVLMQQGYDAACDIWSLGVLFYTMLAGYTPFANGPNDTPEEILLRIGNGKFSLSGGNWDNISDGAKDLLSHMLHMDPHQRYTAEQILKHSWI
From the text: as §1

[61] = molecular target: T59, SIK (Homo sapiens, UniProt P57059)
T59 construct: purchased KINOMEscan (Ambit)
From the text: as §1

[62] = molecular target: T60, SNARK (Homo sapiens, UniProt Q9H093)
T60 construct: purchased KINOMEscan (Ambit)
From the text: as §1

[63] = molecular target: T61, SYK (Homo sapiens, UniProt P43405)
T61 construct: purchased KINOMEscan (Ambit)
From the text: as §1

[64] = molecular target: T62, TYK2(JH1domain-catalytic) (Homo sapiens, UniProt P29597)
T62 construct: TYK2(JH1domain); purchased KINOMEscan (Ambit) screening platform
From the text: as §1

[65] = molecular target: T63, TYK2(JH2domain-pseudokinase) (Homo sapiens, UniProt P29597)
T63 construct: TYK2(JH2domain); purchased KINOMEscan (Ambit) screening platform
From the text: as §1

[66] = molecular target: T64, ULK1 (Homo sapiens, UniProt O75385)
T64 construct: purchased KINOMEscan (Ambit) screening platform
T64 sequence (O75385 whole entry): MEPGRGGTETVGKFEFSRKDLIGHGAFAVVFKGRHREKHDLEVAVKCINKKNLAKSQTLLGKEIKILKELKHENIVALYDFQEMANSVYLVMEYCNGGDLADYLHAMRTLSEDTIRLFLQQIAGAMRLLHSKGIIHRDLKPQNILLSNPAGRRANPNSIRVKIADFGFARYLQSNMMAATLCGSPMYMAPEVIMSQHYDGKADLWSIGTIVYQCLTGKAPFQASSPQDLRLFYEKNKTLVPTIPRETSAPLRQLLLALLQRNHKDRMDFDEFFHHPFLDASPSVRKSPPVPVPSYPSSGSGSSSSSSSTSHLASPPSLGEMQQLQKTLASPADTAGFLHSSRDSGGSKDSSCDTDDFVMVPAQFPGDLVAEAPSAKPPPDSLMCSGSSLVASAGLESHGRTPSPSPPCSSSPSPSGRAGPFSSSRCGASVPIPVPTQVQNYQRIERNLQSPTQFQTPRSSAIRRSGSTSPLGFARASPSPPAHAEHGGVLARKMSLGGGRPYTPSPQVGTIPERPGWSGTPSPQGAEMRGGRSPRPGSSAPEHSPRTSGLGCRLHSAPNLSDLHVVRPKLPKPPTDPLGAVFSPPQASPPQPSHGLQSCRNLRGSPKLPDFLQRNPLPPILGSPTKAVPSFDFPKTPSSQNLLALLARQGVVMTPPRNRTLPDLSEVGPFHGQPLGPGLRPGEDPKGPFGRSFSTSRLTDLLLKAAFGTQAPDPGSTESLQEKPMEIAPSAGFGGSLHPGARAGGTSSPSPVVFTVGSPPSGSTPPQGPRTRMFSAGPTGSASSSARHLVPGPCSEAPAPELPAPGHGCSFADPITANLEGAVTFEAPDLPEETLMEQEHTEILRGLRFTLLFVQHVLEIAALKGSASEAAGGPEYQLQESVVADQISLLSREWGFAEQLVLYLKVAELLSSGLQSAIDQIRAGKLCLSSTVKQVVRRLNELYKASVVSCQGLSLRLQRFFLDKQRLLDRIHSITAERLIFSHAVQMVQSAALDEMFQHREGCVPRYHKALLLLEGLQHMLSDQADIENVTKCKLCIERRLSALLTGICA
From the text: as §1

[67] = molecular target: T65, ULK3 (Homo sapiens, UniProt Q6PHR2)
T65 construct: purchased KINOMEscan (Ambit) screening platform
T65 sequence (Q6PHR2 whole entry): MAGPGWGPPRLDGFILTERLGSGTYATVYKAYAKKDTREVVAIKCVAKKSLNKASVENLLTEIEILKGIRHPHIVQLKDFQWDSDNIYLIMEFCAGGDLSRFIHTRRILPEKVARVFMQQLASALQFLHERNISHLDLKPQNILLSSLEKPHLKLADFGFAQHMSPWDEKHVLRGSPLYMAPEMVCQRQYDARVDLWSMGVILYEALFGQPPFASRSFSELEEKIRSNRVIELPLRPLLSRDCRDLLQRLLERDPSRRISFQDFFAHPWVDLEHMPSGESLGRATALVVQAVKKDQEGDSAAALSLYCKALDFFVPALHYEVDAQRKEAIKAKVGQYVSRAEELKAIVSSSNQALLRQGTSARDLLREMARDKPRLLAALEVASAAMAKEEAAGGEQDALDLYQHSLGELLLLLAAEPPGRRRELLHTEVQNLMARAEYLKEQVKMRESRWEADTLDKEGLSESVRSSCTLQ
From the text: as §1

[68] = molecular target: T66, WNK1 (Homo sapiens, UniProt Q9H4A3)
T66 construct: purchased KINOMEscan (Ambit) screening platform
From the text: as §1

[69] = molecular target: T67, p38-alpha (Homo sapiens, UniProt Q16539)
T67 construct: purchased KINOMEscan (Ambit)
From the text: as §1

SMILES: C=CC(=O)N1CCC(Nc2nccc(Oc3cc(C(=O)Nc4ccc(CN5CCN(CC)CC5)c(C(F)(F)F)c4)ccc3C)n2)C1 (stereo not drawn) [S-(I-1)]
- Score [1]: 93
- Score [2]: 83
- Score [3]: 100
- Score [4]: 98
- Score [5]: 65
- Score [6]: 0
- Score [7]: 77
- Score [8]: 56
- Score [9]: 2.8
- Score [10]: 100
- Score [11]: 61
- Score [12]: 58
- Score [13]: 91
- Score [14]: 97
- Score [15]: 92
- Score [16]: 99
- Score [17]: 90
- Score [18]: 68
- Score [19]: 66
- Score [20]: 59
- Score [21]: 81
- Score [22]: 52
- Score [23]: 38
- Score [24]: 43
- Score [25]: 84
- Score [26]: 94
- Score [27]: 66
- Score [28]: 90
- Score [29]: 90
- Score [30]: 87
- Score [31]: 91
- Score [32]: 24
- Score [33]: 81
- Score [34]: 98
- Score [35]: 62
- Score [36]: 100
- Score [37]: 84
- Score [38]: 28
- Score [39]: 0.35
- Score [40]: 52
- Score [41]: 100
- Score [42]: 0.35
- Score [43]: 100
- Score [44]: 93
- Score [45]: 100
- Score [46]: 100
- Score [47]: 99
- Score [48]: 96
- Score [49]: 0.9
- Score [50]: 97
- Score [51]: 100
- Score [52]: 88
- Score [53]: 77
- Score [54]: 52
- Score [55]: 89
- Score [56]: 89
- Score [57]: 85
- Score [58]: 87
- Score [59]: 90
- Score [60]: 91
- Score [61]: 87
- Score [62]: 100
- Score [63]: 24
- Score [64]: 91
- Score [65]: 92
- Score [66]: 94
- Score [67]: 78
- Score [68]: 86
- Score [69]: 0
